The target in the assay is T1, BRM (Homo sapiens, UniProt P51531).
T1 construct: In-Cell Western Screen of BRM Degradation in SW1573 Cells; endogenous in cells; host or cells: SW1573 cells
Kind of assay: Western blot / In-Cell Western screen of BRM degradation in SW1573 cells. Type of assay: cell-based. Particulars: overnight (18-20 hours) treatment; for Dmax: read-out: Dmax (%) (% degraded). How it is done:
Western Blot Screen of BRM Degradation in SW1573 Cells
To assess BRM degradation (Dmax and DC50) cells were seeded at 8000/well in 96-well black/clear-bottom plates in 180 μL DMEM growth media (containing 1% pen-strep, 1% HEPES and 10% FBS) per well. Plates were incubated overnight to allow adhesion. The next morning cells were treated by adding 20 μL of 10× target compound concentration (1% DMSO) to appropriate wells and returned to incubator for overnight (18-20 hours). The final DMSO concentration was 0.1%.
For lysing, adherent cells were washed once with 100 μL of DPBS. Cells were lysed in 40 μL of 1× RIPA+HALT protease inhibitor on ice for 10 minutes and frozen until use at −80° C. Thawed lysates were cleaned by filtration in 1.2 µm filter plates, or alternatively, were spun clean at 2300 g at 4° C. for 30 minutes.
For blotting, for each Western sample 30 μL of lysate was added to 10 μL of 4×LDS sample buffer, then denatured at 95° C. for 5 minutes in the thermal cycler and placed on ice. Samples were loaded on 4-15% Tris/Glycine gels and run for 25 minutes at 250 constant volts in 1×Tris/Glycine buffer with 4 μL of ladder and 12 μL of each sample loaded for each blot. Protein was transferred from gels to NC with BioRad Turbo dry-transfer unit with the Turbo/midi default program. All blots were rinsed with ddH2O and blocked for 1 hour at room temperature in 5% BSA in TBST (0.1%) on rocker. Blots were exposed to primary antibody in 5% BSA in TBST (0.1%) overnight at 4° C. on rocker (1:1000 for BRM (Cell Signaling Tech. cat #11966) and 1:2000 for alpha-tubulin (Cell Signaling Tech. cat #3873), a control protein. Blot was washed with TBST (0.1%) three times for 5 minutes on rocker at room temperature. Secondary antibody was added, and blots were incubated on a room temperature rocker for 1 hour with 1:18,000 anti-rabbit-HRP and/or anti-mouse-HRP in 5% BSA in TBST (0.1%). Blots were washed three times in TBST (0.1%) for 5 minutes at room temperature on the rocker. Signal was developed with Femto Maximum Sensitivity substrate for 4 minutes and blots read on ChemiDoc™.
In-Cell Western Screen of BRM Degradation in SW1573 Cells
To assess BRM degradation (Dmax and DC50), cells were seeded at 8000/well in 96-well black/clear-bottom plates in 180 μL DMEM growth media (containing 1% pen-strep, 1% HEPES and 10% FBS) per well. Plates were incubated overnight to allow adhesion. The next morning cells were treated by adding 20 μL of 10× compound (1% DMSO) to appropriate wells and returned to incubator for overnight (18-20 hours). The final DMSO concentration was 0.1%.
For processing, the plates were removed from incubator, the media was removed, and immediately 200 μL of cold (4° C.) DPBS was added to all wells. DPBS was then removed, and 50 μL of 4% paraformaldehyde (PFA) in DPBS (4° C.) was added to all wells, and the plates were incubated at room temperature for 20 minutes. PFA was then removed, and 200 μL of TBS-T containing 0.5% Triton X-100 was added to all wells, and the plates were incubated at room temperature for 30 minutes. TBS-T containing 0.5% Triton X-100 was then removed, and 50 μL of Li-Cor blocking solution was added, and the plates were incubated at room temperature for a minimum of one hour. The blocking solution was removed, and 50 μL of Li-Cor blocking solution containing primary antibody cocktail was added (1:1000 for BRM (Cell Signaling Tech. cat #11966) and 1:2000 for alpha-tubulin (Sigma cat #T6074), a control protein. Plates were then placed in cold room until the next day.
The next day plates were washed three times with TBS-T, 200 μL per well. Fifty […] of secondary antibody cocktail in LI-COR blocking solution (anti-rabbit_800 nm and anti-mouse_680 nm) was added to all wells (diluted 1:5000). The plates were incubated at room temperature for at least one hour while protected from light. The plates were washed twice with TBS-T, 200 μL per well. […]

T1 sequence (P51531 whole entry): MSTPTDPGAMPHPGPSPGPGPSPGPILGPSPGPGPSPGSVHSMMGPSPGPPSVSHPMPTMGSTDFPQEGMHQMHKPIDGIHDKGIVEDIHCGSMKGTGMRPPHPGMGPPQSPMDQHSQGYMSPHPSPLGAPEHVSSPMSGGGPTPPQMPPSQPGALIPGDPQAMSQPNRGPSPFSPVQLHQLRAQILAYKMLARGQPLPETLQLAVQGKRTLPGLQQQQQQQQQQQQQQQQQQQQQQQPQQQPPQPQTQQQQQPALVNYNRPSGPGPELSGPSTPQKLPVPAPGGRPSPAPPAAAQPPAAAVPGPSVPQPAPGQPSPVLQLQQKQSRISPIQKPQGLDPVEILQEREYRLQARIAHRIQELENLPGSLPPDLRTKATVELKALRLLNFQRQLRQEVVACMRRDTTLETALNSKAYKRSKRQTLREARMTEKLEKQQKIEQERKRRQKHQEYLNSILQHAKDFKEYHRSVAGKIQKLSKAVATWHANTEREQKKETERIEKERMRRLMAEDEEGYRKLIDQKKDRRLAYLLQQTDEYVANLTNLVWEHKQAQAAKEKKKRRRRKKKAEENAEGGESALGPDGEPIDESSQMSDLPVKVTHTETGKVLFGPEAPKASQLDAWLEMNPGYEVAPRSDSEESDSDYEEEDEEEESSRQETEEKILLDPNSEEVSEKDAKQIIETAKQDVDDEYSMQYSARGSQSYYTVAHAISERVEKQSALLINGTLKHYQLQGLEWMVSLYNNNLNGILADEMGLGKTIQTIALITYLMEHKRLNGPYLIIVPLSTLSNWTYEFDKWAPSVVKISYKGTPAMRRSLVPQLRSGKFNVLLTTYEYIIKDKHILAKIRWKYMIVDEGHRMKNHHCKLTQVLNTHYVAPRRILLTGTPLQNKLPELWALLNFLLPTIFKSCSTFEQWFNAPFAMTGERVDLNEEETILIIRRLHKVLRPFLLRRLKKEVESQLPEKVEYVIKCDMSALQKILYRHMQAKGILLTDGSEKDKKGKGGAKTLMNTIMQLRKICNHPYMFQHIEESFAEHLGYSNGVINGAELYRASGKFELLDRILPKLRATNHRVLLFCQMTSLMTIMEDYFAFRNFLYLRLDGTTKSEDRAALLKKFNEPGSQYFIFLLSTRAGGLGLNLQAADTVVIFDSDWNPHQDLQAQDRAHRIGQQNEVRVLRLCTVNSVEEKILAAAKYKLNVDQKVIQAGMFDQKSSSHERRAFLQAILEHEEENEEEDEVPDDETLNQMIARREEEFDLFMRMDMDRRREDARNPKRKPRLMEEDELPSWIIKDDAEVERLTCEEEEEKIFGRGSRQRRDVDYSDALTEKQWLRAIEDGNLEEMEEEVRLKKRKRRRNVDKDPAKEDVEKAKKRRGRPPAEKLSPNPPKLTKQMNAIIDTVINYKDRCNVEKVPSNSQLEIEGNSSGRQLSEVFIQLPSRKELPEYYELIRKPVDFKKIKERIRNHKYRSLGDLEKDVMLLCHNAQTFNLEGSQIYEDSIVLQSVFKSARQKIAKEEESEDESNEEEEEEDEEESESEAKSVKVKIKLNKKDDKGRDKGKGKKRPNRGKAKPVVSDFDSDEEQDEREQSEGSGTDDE

As for `Cc1ncsc1-c1ccc([C@H](C)NC(=O)[C@@H]2C[C@@H](O)CN2C(=O)[C@@H](c2cc(N3CCC(CN4CCC(O[C@H]5C[C@H](n6ccnc6CN6C7CCC6CN(c6cc(-c8ccccc8O)nnc6N)C7)C5)CC4)CC3)no2)C(C)C)cc1` [Compound 8, (2S,4R)-4-hydroxy-N-[(1S)-1-[4-(4-methyl-1,3-thiazol-5-yl)phenyl]ethyl]-1-[(2R)-3-methyl-2-{3-[4-({4-[(1r,3r)-3-[2-({3-[3-amino-6-(2-hydroxyphenyl)pyridazin-4-yl]-3,8-diazabicyclo[3.2.1]octan-8-yl}methyl)-1H-imidazol-1-yl]cyclobutoxy]piperidin-1-yl}methyl)piperidin-1-yl]-1,2-oxazol-5-yl}butanoyl]pyrrolidine-2-carboxamide], the DC50 is less than 2.5 nM and the Dmax is more than 75%.

On to `Cc1ncsc1-c1ccc([C@H](C)NC(=O)[C@@H]2C[C@@H](O)CN2C(=O)[C@H](c2cc(N3CCC(O[C@H]4C[C@H](OCC#Cc5cn6cc(-c7ccccc7O)nc6nc5N)C4)CC3)no2)C(C)C)cc1` [Compound 34, (2S,4R)-4-hydroxy-N-[(1S)-1-[4-(4-methyl-1,3-thiazol-5-yl)phenyl]ethyl]-1-[(2S)-3-methyl-2-(3-{4-[(1r,3r)-3-({3-[7-amino-2-(2-hydroxyphenyl)imidazo[1,2-a]pyrimidin-6-yl]prop-2-yn-1-yl}oxy)cyclobutoxy]piperidin-1-yl}-1,2-oxazol-5-yl)butanoyl]pyrrolidine-2-carboxamide], for which the DC50 is not below 30 nM.

Consider `Cc1ncsc1-c1ccc([C@H](C)NC(=O)[C@@H]2C[C@@H](O)CN2C(=O)[C@@H](c2cc(OCCN3CCN(CCOc4cc(N5CCN(c6cc(-c7ccccc7O)nnc6N)CC56COC6)ccn4)CC3)no2)C(C)C)cc1` [Compound 15, (2S,4R)-1-[(2R)-2-{3-[2-(4-{2-[(4-{8-[3-amino-6-(2-hydroxyphenyl)pyridazin-4-yl]-2-oxa-5,8-diazaspiro[3.5]nonan-5-yl}pyridin-2-yl)oxy]ethyl}piperazin-1-yl)ethoxy]-1,2-oxazol-5-yl}-3-methylbutanoyl]-4-hydroxy-N-[(1S)-1-[4-(4-methyl-1,3-thiazol-5-yl)phenyl]ethyl]pyrrolidine-2-carboxamide], for which the DC50 was less than 2.5 nM and the maximal degradation (Dmax) is more than 75%. In the case of `Cc1ncsc1-c1ccc([C@H](C)NC(=O)[C@@H]2C[C@@H](O)CN2C(=O)[C@@H](c2cc(N3CCC(CN4CCC5(CC4)CC(N4CCO[C@@H](CN6CCOC7(CCCN(c8cc(-c9ccccc9O)nnc8N)C7)C6)C4)C5)CC3)no2)C(C)C)cc1` (stereo partly drawn) [Compound 22, (2S,4R)-1-[(2R)-2-{3-[4-({2-[(2S)-2-({8-[3-amino-6-(2-hydroxyphenyl)pyridazin-4-yl]-1-oxa-4,8-diazaspiro[5.5]undecan-4-yl}methyl)morpholin-4-yl]-7-azaspiro[3.5]nonan-7-yl}methyl)piperidin-1-yl]-1,2-oxazol-5-yl}-3-methylbutanoyl]-4-hydroxy-N-[(1S)-1-[4-(4-methyl-1,3-thiazol-5-yl)phenyl]ethyl]pyrrolidine-2-carboxamide], the DC50 was less than 2.5 nM and the Dmax was more than 75%. `Cc1ncsc1-c1ccc([C@H](C)NC(=O)[C@@H]2C[C@@H](O)CN2C(=O)[C@@H](c2cc(N3CCC(CN4CCC(O[C@H]5C[C@H](OCC#Cc6cn7cc(-c8ccccc8O)nc7nc6N)C5)CC4)CC3)no2)C(C)C)cc1` [Compound 29]: the DC50 was less than 2.5 nM and the greatest degradation seen (Dmax) was more than 75%. In the case of `Cc1ncsc1-c1ccc([C@H](C)NC(=O)[C@@H]2C[C@@H](O)CN2C(=O)[C@@H](c2cc(N3CCC(CN4CCC(O[C@H]5C[C@H](n6cnc(CN7C8CCC7CN(c7cc(-c9ccccc9O)nnc7N)C8)c6)C5)CC4)CC3)no2)C(C)C)cc1` [Compound 3, (2S,4R)-4-hydroxy-N-[(1S)-1-[4-(4-methyl-1,3-thiazol-5-yl)phenyl]ethyl]-1-[(2R)-3-methyl-2-{3-[4-({4-[(1r,3r)-3-[4-({3-[3-amino-6-(2-hydroxyphenyl)pyridazin-4-yl]-3,8-diazabicyclo[3.2.1]octan-8-yl}methyl)-1H-imidazol-1-yl]cyclobutoxy]piperidin-1-yl}methyl)piperidin-1-yl]-1,2-oxazol-5-yl}butanoyl]pyrrolidine-2-carboxamide], the 50% degradation concentration (DC50) is less than 2.5 nM and the Dmax is more than 75%. Turning to `CC(C)[C@@H](C(=O)N1C[C@H](O)C[C@H]1C(=O)N[C@@H](C)c1ccc(-c2ccnn2C)cc1)c1cc(N2CCC(CN3CCC(O[C@H]4C[C@H](n5cc(-c6cn7cc(-c8ccccc8O)nc7nc6N)cn5)C4)CC3)CC2)no1` [Compound 41, (2S,4R)-4-hydroxy-N-[(1S)-1-[4-(1-methyl-1H-pyrazol-5-yl)phenyl]ethyl]-1-[(2R)-3-methyl-2-{3-[4-({4-[(1r,3r)-3-{4-[7-amino-2-(2-hydroxyphenyl)imidazo[1,2-a]pyrimidin-6-yl]-1H-pyrazol-1-yl}cyclobutoxy]piperidin-1-yl}methyl)piperidin-1-yl]-1,2-oxazol-5-yl}butanoyl]pyrrolidine-2-carboxamide], the DC50 was less than 2.5 nM and the Dmax is more than 75%. For the compound `Cc1ncsc1-c1ccc([C@H](C)NC(=O)[C@@H]2C[C@@H](O)CN2C(=O)[C@@H](c2cc(N3CCC(CN4CCC(O[C@H]5C[C@H](N6CCC(CN7CCN(c8cc(-c9ccccc9O)nnc8N)CC78COC8)CC6)C5)CC4)CC3)no2)C(C)C)cc1` [Compound 13, (2S,4R)-4-hydroxy-N-[(1S)-1-[4-(4-methyl-1,3-thiazol-5-yl)phenyl]ethyl]-1-[(2R)-3-methyl-2-{3-[4-({4-[(1r,3r)-3-[4-({8-[3-amino-6-(2-hydroxyphenyl)pyridazin-4-yl]-2-oxa-5,8-diazaspiro[3.5]nonan-5-yl}methyl)piperidin-1-yl]cyclobutoxy]piperidin-1-yl}methyl)piperidin-1-yl]-1,2-oxazol-5-yl}butanoyl]pyrrolidine-2-carboxamide], the 50% degradation concentration (DC50) is less than 2.5 nM and the Dmax is more than 75%. On to `Cc1ncsc1-c1ccc([C@H](C)NC(=O)[C@@H]2C[C@@H](O)CN2C(=O)[C@@H](c2cc(N3CCC(CN4CCC(O[C@H]5C[C@H](Oc6cc(N7C[C@@H]8CN(c9cc(-c%10ccccc%10O)nnc9N)C[C@@H]8C7)ccn6)C5)CC4)CC3)no2)C(C)C)cc1` [Compound 7, (2S,4R)-4-hydroxy-N-[(1S)-1-[4-(4-methyl-1,3-thiazol-5-yl)phenyl]ethyl]-1-[(2R)-3-methyl-2-{3-[4-({4-[(1r,3r)-3-({4-[(3aR,6aS)-5-[3-amino-6-(2-hydroxyphenyl)pyridazin-4-yl]-octahydropyrrolo[3,4-c]pyrrol-2-yl]pyridin-2-yl}oxy)cyclobutoxy]piperidin-1-yl}methyl)piperidin-1-yl]-1,2-oxazol-5-yl}butanoyl]pyrrolidine-2-carboxamide], for which the half-maximal degradation concentration (DC50) was less than 2.5 nM and the maximal degradation (Dmax) is more than 75%.

The record behind these values is US20250064945A1 (Arvinas Operations, Inc., priority 2021, published 2025).
